For ten compounds, IC50 and EC50 results are on record in patent publication US12012402B2, “Pyrido[2,3-d]pyrimidin-7-ones and related compounds as inhibitors of protein kinases” (UNIVERSITY OF HOUSTON SYSTEM, priority 2017, dated 2024).

Usually IC50 stands for the midpoint of a concentration-inhibition curve. One may read the EC50 as the concentration that produces a half-maximal response.

The target of assay [1] is Recombinant RIPK2 protein (Homo sapiens, UniProt O43353). Nature of the assay: Receptor Interacting Protein Kinase 2 (RIPK2) enzyme assay (ADP-Glo). Format: biochemical. The settings on record: 2 h at room temperature. The text has this:
Receptor Interacting Protein Kinase 2 (RIPK2) Enzyme Assay
Inhibition, %=(1−(test signal/maximal signal))*100.
In general terms: ADP-Glo first removes unused ATP, then detects ADP through luciferase.

For a further assay, the system named is NOD2 cellular signaling. Kind of assay: NOD2 signaling assay in HEK-Blue cells (NFkB-SEAP reporter, L18-MDP stimulated). The format is cell-based. The settings on record: HEK-Blue cells expressing human NOD2, L18-MDP stimulation, 8 h; NI = no inhibition observed; read-out: EC50 HEK Blue RIPK2. The procedure: HEK-Blue cells expressing human NOD2 and NFkB-SAEP reporter (Invivogen) are seeded into 96 well clear plates at 7.5×10^3 cells per well in 100 μL of DMEM media supplemented with 10% FBS and 1% antibiotic-antimycotic mix. Cells are allowed to attach for 48 h in 5% CO2 tissue culture incubator at 37° C. On the morning of the experiment, media in the wells is replaced with 100 μL of HEK-Blue detection media (Invivogen). Cells are treated with the inhibitors, diluted in DMSO (0.5 μL per well) for 15 min in 5% CO2 tissue culture incubator at 37° C. After that, cells are stimulated by the addition of 1 ng/well L18-MDP (Invivogen). Cells are incubated in 5% CO2 tissue culture incubator at 37° C. for 8 h and absorbance, corresponding to the SEAP in the media, is determined in Wallac3V plate reader (Perkin Elmer). Inhibition, %=(1−((sample signal-unstimulated and DMSO treated cells)/(L18-MDP stimulated and DMSO treated cells—unstimulated and DMSO treated cells)))*100.

The target of a further assay is T1, human ALK2 (Homo sapiens, UniProt Q04771).
T1 sequence (Q04771 21-509): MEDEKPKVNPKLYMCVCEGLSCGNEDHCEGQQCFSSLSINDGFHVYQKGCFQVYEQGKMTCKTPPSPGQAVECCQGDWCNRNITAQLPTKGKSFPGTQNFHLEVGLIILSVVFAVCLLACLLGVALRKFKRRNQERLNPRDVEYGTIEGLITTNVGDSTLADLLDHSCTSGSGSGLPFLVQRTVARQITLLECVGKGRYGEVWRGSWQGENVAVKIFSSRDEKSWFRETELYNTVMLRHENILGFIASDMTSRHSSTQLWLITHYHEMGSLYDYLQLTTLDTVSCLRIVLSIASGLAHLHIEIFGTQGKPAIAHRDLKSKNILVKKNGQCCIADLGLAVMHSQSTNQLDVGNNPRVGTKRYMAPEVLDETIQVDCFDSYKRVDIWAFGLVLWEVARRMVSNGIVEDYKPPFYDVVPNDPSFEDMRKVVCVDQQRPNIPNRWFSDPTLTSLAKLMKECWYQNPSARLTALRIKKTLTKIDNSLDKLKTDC
Nature of the assay: Activin-Like Kinase 2 (ALK2) enzyme assay (33P-casein). The settings on record: casein 1 mg/mL, 30 min; NI = no inhibition observed. The format is biochemical. How it is done: Activin-Like Kinase 2 (ALK2) Enzyme Assay
Enzyme inhibitory activity was evaluated in a standard kinase enzyme assay by incubating human ALK2 with the protein substrate casein (1 mg/mL) and γ-^33ATP (10 µM) in the presence of various concentrations of test compounds (10 nM-100 μM). After 30 min the amount of ^33P-casein was determined.

Chain of Recombinant RIPK2 protein (O43353 whole entry): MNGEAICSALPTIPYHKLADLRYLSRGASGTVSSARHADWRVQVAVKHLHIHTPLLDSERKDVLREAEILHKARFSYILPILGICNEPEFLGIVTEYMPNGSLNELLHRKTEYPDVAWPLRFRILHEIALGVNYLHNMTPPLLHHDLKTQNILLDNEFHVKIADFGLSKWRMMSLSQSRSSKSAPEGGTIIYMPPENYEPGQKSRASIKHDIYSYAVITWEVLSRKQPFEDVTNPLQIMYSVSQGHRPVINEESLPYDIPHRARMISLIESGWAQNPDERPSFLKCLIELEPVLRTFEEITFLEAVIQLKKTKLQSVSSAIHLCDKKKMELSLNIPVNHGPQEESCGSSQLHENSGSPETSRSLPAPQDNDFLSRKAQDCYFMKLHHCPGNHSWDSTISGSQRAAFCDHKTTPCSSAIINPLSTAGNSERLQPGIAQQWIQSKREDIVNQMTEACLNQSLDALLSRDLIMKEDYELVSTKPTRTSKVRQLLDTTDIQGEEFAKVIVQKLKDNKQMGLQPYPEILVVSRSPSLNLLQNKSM

`Cn1c(=O)c(-c2ccccc2Cl)cc2cnc(Nc3ccccn3)nc21` [UH15_35, 6-(2-chlorophenyl)-8-methyl-2-(pyridin-2-ylamino)pyrido[2,3-d]pyrimidin-7(8H)-one]: in assay [1], the IC50 was determined as 87.4 nM. Moreover, the EC50 in the assay with NOD2 cellular signaling turned out to be 949 nM.
`CS(=O)(=O)c1cccc(Nc2ncc3cc(-c4ccccc4Cl)ccc3n2)c1` [UH15PN2, 6-(2-chlorophenyl)-N-(3-(methylsulfonyl)phenyl)quinazolin-2-amine]: the IC50 was 30.2 nM in assay [1] and more than 100000 nM against human ALK2. Besides, the 50% effective concentration (EC50) in the assay on NOD2 cellular signaling is 353 nM.
Regarding `CS(=O)(=O)c1cccc(Nc2ncc3cc(-c4ccc(O)cc4)ccc3n2)c1` [UH15PN3, 4-(2-((3-(methylsulfonyl)phenyl)amino)quinazolin-6-yl)phenol], the results for the IC50 (in assay [1]; at human ALK2) were 29.6 nM and 8420 nM, respectively.
As for `Cn1c(=O)c(-c2ccccc2Cl)cc2cnc(Nc3cccc(N4CCNCC4)c3)cc21` [UH15_25, 3-(2-chlorophenyl)-1-methyl-7-((3-(piperazin-1-yl)phenyl)amino)-1,6-naphthyridin-2(1H)-one], in the assay on NOD2 cellular signaling, the EC50 was 55 nM.
With `Cn1c(=O)c(-c2ccccc2Cl)cc2cnc(Nc3cccc(N4CCNCC4)c3)nc21` [UH15_33, 6-(2-chlorophenyl)-8-methyl-2-((3-(piperazin-1-yl)phenyl)amino)pyrido[2,3-d]pyrimidin-7(8H)-one], the IC50 in assay [1] came to 21.6 nM; at human ALK2, 226 nM. In addition, the EC50 in the assay on NOD2 cellular signaling was 0.2 nM.
The corresponding values for `Cn1c(=O)c(-c2ccccc2Cl)cc2cnc(Nc3cccnc3)nc21` [UH15_34, 6-(2-chlorophenyl)-8-methyl-2-(pyridin-3-ylamino)pyrido[2,3-d]pyrimidin-7(8H)-one] are 35.2 nM, 1100 nM and 34 nM.
Turning to `CS(=O)(=O)c1cccc(Nc2ncc3cc(-c4ccccn4)ccc3n2)c1` [UH15PN5, N-(3-(methylsulfonyl)phenyl)-6-(pyridin-2-yl)quinazolin-2-amine], the IC50 in assay [1] stood at 41.5 nM. The 50% effective concentration (EC50) with NOD2 cellular signaling was 1960 nM.
The like results for `CS(=O)(=O)c1cccc(Nc2ncc3cc(-c4cccnc4)ccc3n2)c1` [UH15PN6, N-(3-(methylsulfonyl)phenyl)-6-(pyridin-3-yl)quinazolin-2-amine] were, in that order, 25 nM and 450 nM.
As to `CCN(CC)CCOc1ccc(Nc2ncc3cc(-c4ccccc4Cl)ccc3n2)cc1` [UH15PN1, 6-(2-chlorophenyl)-N-(4-(2-(diethylamino)ethoxy)phenyl)quinazolin-2-amine], the IC50 in assay [1] is 22.1 nM; at human ALK2, 326 nM. Also, the EC50 in the assay on NOD2 cellular signaling is 168 nM.
Consider `Cn1c(=O)c(-c2ccccc2Cl)cc2cnc(Nc3cccc(S(C)(=O)=O)c3)cc21` [UH15_32, 3-(2-chlorophenyl)-1-methyl-7-((3-(methylsulfonyl)phenyl)amino)-1,6-naphthyridin-2(1H)-one], for which the IC50 in assay [1] is 27.3 nM; on human ALK2, more than 100000 nM. Further, in the assay with NOD2 cellular signaling, the 50% effective concentration (EC50) worked out at 406 nM.
